According to patent US6720346B2, “Thiazole benzamide derivatives and pharmaceutical compositions for inhibiting cell proliferation” (Agouron Pharmaceuticals, Inc., priority 2001, dated 2004):
Where a name gives a salt, the structure may show the parent alone.

What was measured:
human CDK4/cyclin D3 = target: T1, human CDK4/cyclin D3 (Homo sapiens, UniProt P11802); assay: Inhibition of CDK4/cyclin D retinoblastoma kinase activity (Ki; % inhibition); assay type: biochemical; settings: apparent Ki, CDK4/cyclin D3, Rb substrate
T1 construct: made in house; host or cells: insect cells co-infected with baculovirus vectors
Description: (§1) Cyclin-dependent kinase activity was measured by quantifying the enzyme-catalyzed, time-dependent incorporation of radioactive phosphate from [^32P]ATP or [^33P]ATP into a protein substrate. Unless noted otherwise, assays were performed in 96-well plates in a total volume of 50 μL, in the presence of 10 mM HEPES (N-[2-hydroxyethyl]piperazine-N′-[2-ethanesulfonic acid]) (pH 7.4), 10 mM MgCl2, 25 μM adenosine triphosphate (ATP), 1 mg/mL ovalbumin, 5 μg/mL leupeptin, 1 mM dithiothreitol, 10 mM β-glycerophosphate, 0.1 mM sodium vanadate, 1 mM sodium fluoride, 2.5 mM ethylene glycol-bis(β-aminoethyl ether)-N,N,N′N′-tetraacetic acid (EGTA), 2% (v/v) dimethylsulfoxide, and 0.03-0.4 μCi [^32/33P]ATP per reaction. Reactions were initiated with enzyme, incubated at 30° C., and terminated after 20 minutes by the addition of ethylenediaminetetraacetic acid (EDTA) to 250 mM. The phosphorylated substrate was then captured on a nitrocellulose or phosphocellulose membrane using a 96-well filtration manifold, and unincorporated radioactivity was removed by repeated washing with 0.85% phosphoric acid. Radioactivity was quantified by exposing the dried membranes to a phosphorimager.
(§2) Compounds from combinatorial libraries were screened from 96-well plates for % inhibition of CDK activity at 30 nM theoretical compound concentration. Inhibition was measured relative to control wells that contained all reaction components including 2% (v/v) DMSO but no compound, after subtraction of background radioactivity measured in the absence of enzyme. Apparent Ki values of discrete compounds were measured by assaying enzyme activity in the presence of different inhibitor compound concentrations and subtracting the background radioactivity measured in the absence of enzyme. The kinetic parameters (kcat, Km for ATP) were measured for each enzyme under the usual assay conditions by determining the dependence of initial rates on ATP concentration. Inhibition data were fit to an equation for competitive inhibition using Kaleidagraph (Synergy Software), or were fit to an equation for competitive tight-binding inhibition using the software KineTic (BioKin, Ltd.).
A complex of human CDK4 and genetically truncated (1-264) cyclin D3 was purified using traditional biochemical chromatographic techniques from insect cells that had been co-infected with the corresponding baculovirus expression vectors (see e.g., Meijer and Kim, “Chemical Inhibitors of Cyclin-Dependent Kinases,” Methods in Enzymol., 283 (1997), pp. 113-128.). The enzyme complex (5 nM) was assayed with 0.3-0.5 μg of purified recombinant retinoblastoma protein fragment (Rb) as a substrate. The engineered Rb fragment (residues 386-928 of the native retinoblastoma protein; 62.3 kDa) contains the majority of the phosphorylation sites found in the native 106-kDa protein, as well as a tag of six histidine residues for ease of purification. Phosphorylated Rb substrate was captured by microfiltration on a nitrocellulose membrane and quantified using a phosphorimager as described above. For measurement of tight-binding inhibitors, the assay duration was extended to 60 minutes, during which the time-dependence of product formation was linear and initial rate conditions were met.

HCT-116 cell line = assay: Inhibition of cell growth, MTT tetrazolium salt assay; assay type: cell-based; settings: Homo sapiens, HCT-116, 120 h; MTT, three to five days
Description: Inhibition of cell growth was measured using the tetrazolium salt assay, which is based on the ability of viable cells to reduce 3-(4,5-dimethylthiazol-2-yl)-2,5-[2H]-diphenyltetrazolium bromide (MTT) to formazan (Mossman, Journal of Immunological Methods, 65, (1983), pp. 55-58). The water-insoluble purple formazan product was then detected spectrophotometrically. The HCT-116 cell line was used as a representative cancer cell line and grown in 96-well plates. Cells were plated in McCoy's 5A Medium at a volume of 135 μl/well. Plates were incubated for four hours before addition of inhibitor compounds. Different concentrations of inhibitor compounds were added in 0.5% (v/v) dimethylsulfoxide (15 μL/well), and cells were incubated at 37° C. (5% CO2) for three to five days. At the end of the incubation, MTT was added to a final concentration of 0.2 mg/mL, and cells were incubated for 4 hours more at 37° C. After centrifugation of the plates and removal of medium, the absorbance of the formazan (solubilized in dimethylsulfoxide) was measured at 540 nm. The concentration of inhibitor compound causing 50% (IC50) or 90% ([…]) inhibition of growth was determined from the linear portion of a semi-log plot of inhibitor concentration versus percent inhibition. All results were compared to control cells treated only with 0.5% (v/v) dimethylsulfoxide.

CDK2/cyclin A = target: T2, CDK2/cyclin A (Homo sapiens, UniProt P24941); assay: Inhibition of CDK2/cyclin A retinoblastoma kinase activity (Ki; % inhibition); assay type: biochemical; settings: apparent Ki, CDK2/cyclin A, Rb substrate
T2 construct: made in house; host or cells: CDK2: insect cells (baculovirus); cyclin A: E. coli
Description: as §1, §2
CDK2 was purified using published methodology (Rosenblatt et al., “Purification and Crystallization of Human Cyclin-dependent Kinase 2,” J. Mol. Biol., 230, 1993, pp. 1317-1319) from insect cells that had been infected with a baculovirus expression vector. […] A complex of CDK2 and proteolyzed cyclin A was prepared and purified by gel filtration. The substrate for this assay was the same Rb substrate fragment used for the CDK4 assays, and the methodology of the CDK2/delta cyclin A and the CDK4/delta cyclin D3 assays was essentially the same, except that CDK2 was present at 10 nM or 19 nM. The duration of the assay was 60 or 75 minutes, during which the time-dependence of product formation was linear and initial rate conditions were met.

T1 sequence (P11802 whole entry): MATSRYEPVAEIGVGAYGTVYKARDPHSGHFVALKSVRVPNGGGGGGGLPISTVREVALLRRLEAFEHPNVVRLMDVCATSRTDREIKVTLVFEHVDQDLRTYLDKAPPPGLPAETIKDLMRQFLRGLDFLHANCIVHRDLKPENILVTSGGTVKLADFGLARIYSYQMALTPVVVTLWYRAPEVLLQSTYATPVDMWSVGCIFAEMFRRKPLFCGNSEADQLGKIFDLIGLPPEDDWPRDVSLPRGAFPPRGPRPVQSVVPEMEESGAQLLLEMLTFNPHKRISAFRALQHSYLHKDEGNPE
T1 sequence (P30281 1-264 partner limits assumed): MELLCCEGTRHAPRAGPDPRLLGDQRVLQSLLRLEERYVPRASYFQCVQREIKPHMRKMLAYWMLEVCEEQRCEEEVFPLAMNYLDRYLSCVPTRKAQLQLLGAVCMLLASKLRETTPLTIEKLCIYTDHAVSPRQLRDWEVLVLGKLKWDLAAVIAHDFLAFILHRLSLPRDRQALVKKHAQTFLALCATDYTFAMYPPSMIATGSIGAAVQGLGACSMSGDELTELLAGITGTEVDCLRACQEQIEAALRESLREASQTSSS

Row | Structure (SMILES) | Ki (human CDK4/cyclin D3) | IC50 (HCT-116 cell line) | Ki (CDK2/cyclin A)
1 | C[C@@H]1CCC[C@H](C)N1CCNC(=O)c1ccc(Nc2nc(N)c(C(=O)c3c(F)cccc3F)s2)cc1 [Example A51] | 7 nM | 90 nM | 110 nM
2 | CC(C)(CNC(=O)c1ccc(Nc2nc(N)c(C(=O)c3c(F)cccc3F)s2)cc1)N1CCCCC1 [Example A52, 4-[4-Amino-5-(2,6-difluoro-benzoyl)-thiazol-2-ylamino]-N-(2-methyl-2-piperidin-1-yl-propyl)-benzamide] | 9 nM | 130 nM | 170 nM
3 | CC1(C)CCCC(C)(C)N1CCNC(=O)c1ccc(Nc2nc(N)c(C(=O)c3c(F)cccc3F)s2)cc1 [Example A53, 4-[4-Amino-5-(2,6-difluoro-benzoyl)-thiazol-2-ylamino]-N-[2-(2,2,6,6-tetramethyl-piperidin-1-yl)-ethyl]-benzamide] | 4 nM | 150 nM | 120 nM
4 | CN1C[C@H](O)C[C@H]1CNC(=O)c1ccc(Nc2nc(N)c(C(=O)c3c(F)cccc3F)s2)cc1 [Example A54, 4-{4-Amino-5-(2,6-difluoro-benzoyl)-thiazol-2-ylamino]-N-(4R-hydroxy-1-methyl-pyrrolidin-2S-yl-methyl)-benzamide] | 9 nM | 600 nM | 52 nM
5 | Nc1nc(Nc2ccc(C(=O)NCCn3ccnc3)cc2)sc1C(=O)c1c(F)cccc1F [Example A55, 4-[4-Amino-5-(2,6-difluoro-benzoyl)-thiazol-2-ylamino]-N-[2-(imidazol-1-yl)-ethyl]-benzamide Dihydrochloride Salt] | 17 nM | 3200 nM | 56 nM
6 | CC1(C)CC(CNC(=O)c2ccc(Nc3nc(N)c(C(=O)c4c(F)cccc4F)s3)cc2)C(C)(C)N1 (stereo not drawn) [Example A56, 4-[4-Amino-5-(2,6-difluoro-benzoyl)-thiazol-2-ylamino]-N-(2,2,5,5-tetramethyl-pyrrolidin-3R,S-ylmethyl)-benzamide Dihydrochloride Salt] | 8 nM | 4500 nM | 67 nM
7 | C[C@@H]1CN(CCNC(=O)c2ccc(Nc3nc(N)c(C(=O)c4c(F)cccc4F)s3)cc2)C[C@H](C)N1 [Example A57] | 10 nM | 3800 nM | 54 nM
8 | Cc1ccncc1C(=O)c1sc(Nc2ccc(C(=O)NC[C@@H]3CCCN3C)cc2)nc1N [Example A59, 4-{4-Amino-5-[1-(4-methyl-pyridin-3-yl)methanoyl]-thiazol-2-ylamino}-N-(1-methyl-pyrrolidin-2S-ylmethyl)-benzamide Hydrochloride Salt] | 97 nM | 2900 nM | 830 nM
9 | COc1cc(Nc2nc(N)c(C(=O)c3c(F)cccc3F)s2)ccc1C(=O)NC(C)CN(C)C (stereo not drawn) [Example A60, 4-[4-Amino-5-(2,6-difluoro-benzoyl)-thiazol-2-ylamino]-N-(2RS-dimethylamino-1-methyl-ethyl)-2-methoxy-benzamide] | 31 nM | 200 nM | 91 nM
10 | CN(C)CC(C)(C)NC(=O)c1ccc(Nc2nc(N)c(C(=O)c3c(F)cccc3F)s2)cc1 [Example A61, 4-[4-Amino-5-(2,6-difluoro-benzoyl)-thiazol-2-ylamino]-N-(2-dimethylamino-1,1-dimethyl-ethyl)-benzamide Dihydrochloride] | 232 nM | 220 nM | 37.5 nM
11 | Cc1ccsc1C(=O)c1sc(Nc2ccc(C(=O)N[C@H](C)CN(C)C)cc2)nc1N [Example A62, 4-{4-Amino-5-[1-(3-methyl-thiophen-2-yl)-methanoyl]-thiazol-2-ylamino}-N-(2-dimethylamino-1R-methyl-ethyl)-benzamide Trifluoroacetic Acid Salt] | 120 nM | 44 nM | 2.8 nM
12 | Cn1cnc(CNC(=O)c2ccc(Nc3nc(N)c(C(=O)c4c(F)cccc4F)s3)cc2)c1 [Example A63, 4-[4-Amino-5-(2,6-difluoro-benzoyl)-thiazol-2-ylamino]-N-(1-methyl-imidazol-4-yl-methyl)-benzamide Trifluoroacetic Acid Salt] | 18 nM | 1600 nM | 15.3 nM
13 | Cn1cncc1CNC(=O)c1ccc(Nc2nc(N)c(C(=O)c3c(F)cccc3F)s2)cc1 [Example A64, 4-[4-Amino-5-(2,6-difluoro-benzoyl)-thiazol-2-ylamino]-N-(1-methylimidazol-5-yl-methyl)-benzamide] | 22 nM | > 5000 nM | 19 nM
14 | C[C@@H](NC(=O)c1ccc(Nc2nc(N)c(C(=O)c3c(F)cccc3F)s2)cc1)C(=O)O [Example A65] | 57 nM | > 500 nM | 160 nM
15 | C[C@H](CN(C)C)NC(=O)c1ccc(Nc2nc(N)c(C(=O)c3ccccc3F)s2)cc1 [Example A66, Trifluoroacetic Acid Salt] | 350 nM | 120 nM | 18 nM
16 | CN1CCC[C@H]1CNC(=O)c1ccc(Nc2nc(N)c(C(=O)c3ccccc3F)s2)cc1 [Example A67, 4-{4-Amino-5-(2-fluoro-benzoyl)-thiazol-2-ylamino}-N-(1-methyl-pyrrolidin-2S-ylmethyl)-benzamide Trifluoroacetic Acid Salt] | 88 nM | 77 nM | 13 nM
17 | Cc1cc(F)c(C(=O)c2sc(Nc3ccc(C(=O)NC[C@@H]4CCCN4C)cc3)nc2N)c(F)c1 [Example A68, 4-{4-Amino-5-(2,6-difluoro-4-methyl-benzoyl)-thiazol-2-ylamino}-N-(1-methyl-pyrrolidin-2S-ylmethyl)-benzamide] | 45 nM | 75 nM | 8.5 nM
18 | C[C@H](NC(=O)c1ccc(Nc2nc(N)c(C(=O)c3c(F)cccc3F)s2)cc1)[C@@H]1CCCN1C [Example A69] | 234 nM | 2100 nM | 14.6 nM
19 | Cc1ccsc1C(=O)c1sc(Nc2ccc(C(=O)NC[C@@H]3CCCN3C)cc2)nc1N [Example A70, 4-{4-Amino-5-[1-(3-methyl-thiophen-2-yl)-methanoyl]-thiazol-2-ylamino}-N-(1-methyl-pyrrolidin-2S-ylmethyl)-benzamide] | 128 nM | 23 nM | 6.1 nM
20 | CN1CCC[C@H]1CNC(=O)c1ccc(Nc2nc(N)c(C(=O)c3c(F)cccc3Cl)s2)cc1 [Example A71, 4-[4-Amino-5-(2-chloro-6-fluoro-benzoyl)-thiazol-2-ylamino]-N-(1-methyl-pyrrolidin-2S-ylmethyl)-benzamide] | 82 nM | 34 nM | 5.6 nM
